Test results from publication PMC4728427, “Mechanism of allosteric activation of TMEM16A/ANO1 channels by a commonly used chloride channel blocker” (British Journal of Pharmacology, 2016).

Molecular target: T1, Mouse TMEM16A (Mus musculus, UniProt Q8BHY3)
T1 construct: expressed in transfected cells; host or cells: HEK-293T
T1 sequence (Q8BHY3 1-960): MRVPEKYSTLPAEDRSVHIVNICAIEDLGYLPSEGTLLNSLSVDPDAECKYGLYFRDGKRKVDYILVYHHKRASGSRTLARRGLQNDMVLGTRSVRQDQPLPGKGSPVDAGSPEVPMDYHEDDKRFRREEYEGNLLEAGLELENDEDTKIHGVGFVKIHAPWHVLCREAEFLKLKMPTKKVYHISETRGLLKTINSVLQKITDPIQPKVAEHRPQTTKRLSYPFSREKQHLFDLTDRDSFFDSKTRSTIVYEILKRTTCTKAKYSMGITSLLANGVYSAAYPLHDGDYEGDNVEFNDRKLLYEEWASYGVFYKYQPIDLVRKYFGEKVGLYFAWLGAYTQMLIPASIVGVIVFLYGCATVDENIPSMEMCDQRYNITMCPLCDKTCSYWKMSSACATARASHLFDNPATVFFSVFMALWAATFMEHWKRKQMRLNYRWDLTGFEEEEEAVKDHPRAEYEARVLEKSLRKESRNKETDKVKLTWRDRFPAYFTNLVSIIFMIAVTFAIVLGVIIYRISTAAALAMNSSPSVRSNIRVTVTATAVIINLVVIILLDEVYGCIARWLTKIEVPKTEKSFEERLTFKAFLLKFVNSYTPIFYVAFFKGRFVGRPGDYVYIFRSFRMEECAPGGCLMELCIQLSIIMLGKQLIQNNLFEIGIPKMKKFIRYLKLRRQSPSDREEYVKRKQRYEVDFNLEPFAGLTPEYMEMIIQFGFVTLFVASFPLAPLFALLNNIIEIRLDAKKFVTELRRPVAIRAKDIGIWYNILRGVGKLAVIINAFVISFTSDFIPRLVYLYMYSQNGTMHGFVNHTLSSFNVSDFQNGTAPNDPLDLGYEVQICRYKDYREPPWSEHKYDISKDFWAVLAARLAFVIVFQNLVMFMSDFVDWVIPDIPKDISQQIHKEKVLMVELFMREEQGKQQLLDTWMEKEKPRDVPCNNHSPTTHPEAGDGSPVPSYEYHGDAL
Experiment: Steady-state activation curve (conductance versus Vm, Boltzmann fit)
Type: cell-based
Description: The voltage‐dependence of TMEM16A channels was assessed by constructing conductance (G) versus V m relationships in the presence of various [Ca^2+]i. A 1 s pre‐pulse applied to different V m (from −100 to +180 mV in 40 mV increments) was followed by a 0.5 s tail pulse to −60 mV. These pulses were elicited every 2 s from a holding V m of 0 mV. Tail currents were fitted with a single exponential function and the instantaneous tail current amplitude (I tail) estimated from extrapolation of the fit to the beginning of the tail pulse. G was calculated as G = I tail/(V m − E Cl), and normalized G (G/G max) was plotted against the V m of the pre‐pulse. The G versus V m relationships were fitted with the Boltzmann equation of the following form: (5) G/Gmax=1/1+expzgV0.5−VF/RT,
where z g is the number of gating charges moving through the applied transmembrane electric field during channel activation, and V 0.5 is the voltage at which the G is half‐maximal and depends on the conformational energy required for the channel to open.
To examine the possible effects of A9C on TMEM16A channel [Ca^2+]i‐sensitivity, the conductance versus V m relationships were assessed at various [Ca^2+]i in the absence or presence of various [A9C]ext (Figure 10 and Table 3). In the absence of extracellular A9C, V 0.5 (derived from fit with Equation (5)) shifted progressively to lower values as the [Ca^2+]i was increased from 300 to 1000 nM (Table 3). Extracellular A9C dramatically shifted the steady‐state activation curves to the left (Figure 10 and Table 3) to a similar extent for all [Ca^2+]i tested.

[1] = ~300 nM [Ca2+]i, 300 μM [A9C]ext
[2] = ~300 nM [Ca2+]i, 1000 μM [A9C]ext
[3] = ~600 nM [Ca2+]i, 300 μM [A9C]ext
[4] = ~600 nM [Ca2+]i, 1000 μM [A9C]ext
[5] = ~1000 nM [Ca2+]i, 300 μM [A9C]ext
[6] = ~1000 nM [Ca2+]i, 1000 μM [A9C]ext

V 0.5 (Boltzmann fit) [1]: 124 ± 9 (n = 8) mV
z g (Boltzmann fit) [1]: 0.7 ± 0.1 (n = 8)
V 0.5 (Boltzmann fit) [2]: 89 ± 7 (n = 14) mV
z g (Boltzmann fit) [2]: 0.7 ± 0.1 (n = 14)
V 0.5 (Boltzmann fit) [3]: 45 ± 4 (n = 8) mV
z g (Boltzmann fit) [3]: 0.7 ± 0.1 (n = 8)
V 0.5 (Boltzmann fit) [4]: 18 ± 4 (n = 14) mV
z g (Boltzmann fit) [4]: 0.7 ± 0.1 (n = 14)
V 0.5 (Boltzmann fit) [5]: −15 ± 8 (n = 5) mV
z g (Boltzmann fit) [5]: 0.9 ± 0.1 (n = 5)
V 0.5 (Boltzmann fit) [6]: −22 ± 6 (n = 9) mV
z g (Boltzmann fit) [6]: 0.9 ± 0.1 (n = 9)
SMILES: O=C(O)c1c2ccccc2cc2ccccc12 [A9C, Anthracene‐9‐carboxylic acid]
